In article PMC10046901, “Molecular Analysis of the Superior Efficacy of a Dual Epidermal Growth Factor Receptor (EGFR)-DNA-Targeting Combi-Molecule in Comparison with Its Putative Prodrugs 6-Mono-Alkylamino- and 6,6-Dialkylaminoquinazoline in a Human Osteosarcoma Xenograft Model” (Cells, 2023):

Experiments:
[1] = Body weight / tolerance in xenografted mice; format: in vivo, NSG male mice; settings: 80 mg/kg oral gavage every other day, 10 doses
Procedure: Animal experiments were executed in accordance with a protocol approved by the McGill Institutional Animal Care Committee (McGill University Health Centre Research Institute and McGill University, Montreal, Canada). Xenografts of the tumors were obtained via unilateral and subcutaneous injection (5 × 10^6 cells in 100 µL of a PBS1x solution) into immunodeficient NSG male mice (N = 28; 8 weeks old; weight = 30 g; Charles River, Canada). The mice were maintained at optimal temperature (24 °C) and relative humidity (50%) on a 12/12-light/dark cycle with free access to water and food. The mice were monitored clinically every day; body weights were recorded and tumor volumes were measured with a caliper using the formula 4/3 π (length/2) (width/2)^2 every other day. Once tumors reached 68 mm^3, the mice were randomly divided into 4 groups: 1 was treated with ZR2002 (N = 7), another was treated with JS84 (N = 7), another was treated with JS61 (N = 7) and the last was treated with a vehicle (N = 7). The mice were treated every other day for 20 days, receiving a total of 10 doses via oral gavage of 200 µL of a ZR2002, JS61 or JS84 solution at a dose of 80 mg/kg body weight or the vehicle (control group). The drugs were dissolved in a solution of 25% of alcohol (Greenfield, Toronto, ON, Canada), 25% of Cremophor (Sigma-Aldrich, St. Louis, MO, USA) and 50% of 0.9% NaCl (Sigma-Aldrich, St. Louis, MO, USA). The vehicle solution used the same mixture without any drug.

[2] = system: panel of osteosarcoma cells (U2-OS, Saos-2, MG-63, MNNG/HOS, KHOS/NP); test: Growth inhibition assay across panel of osteosarcoma cell lines; format: cell-based; settings: for IC50: range over five osteosarcoma cell lines
[3] = system: MG-63; test: cells; format: cell-based; settings: Homo sapiens, MG-63, 120 h, read-out: IC50 growth inhibition
[4] = system: Saos-2 osteosarcoma xenograft; test: 18F-FDG PET/CT imaging of tumors; format: in vivo, NSG male mice; settings: day 22, 80 mg/kg oral; for total lesion glycolysis (TLG): FDG-PET
Procedure: All PET/CT experiments were performed using nanoScan PET/CT for small animals (Mediso Medical Imaging Systems, Budapest, Hungary). The radiotracer 2′-deoxy-2′-[^18F]fluoro-D-glucose (^18F-FDG) was inoculated via 1 bolus injection in the tail vein (5.3 MBq in 100 µL). All animals were starved from the night before the experiment. The mice were kept awake for 45 min before the scans and weighed, and glycemia was measured in blood drawn from the caudal artery. Afterward, each mouse was placed in the scanner, with the […] at the center of the field of view. Each PET/CT session consisted of a 30 min PET emission scan followed by a 10 min CT transmission scan. The PET/CT scans were conducted under anesthesia (isoflurane 2%; medical air (0.6 L/min)) delivered via a nose cone. Temperature and heart rate were monitored throughout the procedure using the Mediso system. Images were reconstructed using expectation maximization (EM) and ordered subset expectation maximization (OSEM), normalized, and corrected for scatter, dead time and decay. The CT volume-of-interest (VOI) was drawn manually on the CT and PET co-registered images. ^18F-FDG accumulation was quantified as the mean standardized uptake value (SUV) between 20 and 30 min post-injection in a 3D volume-of-interest (VOI), which was named the metabolic volume (MV), delineated semi-automatically with iso-contours at a 40% threshold of the maximal SUV [30] in the tumor on PET/CT fusion slices using the PMOD software package v3.6 (PMOD Technologies Ltd., Zürich, Switzerland). In addition, another tumor volume-based parameter, called total lesion glycolysis (TLG), was calculated according to the product between the MV and the mean SUV. Furthermore, at the end of the imaging sessions, the tumors were resected and processed for ex vivo analysis.

SMILES | tolerance / body weight throughout treatment [1] | IC50 [2] | IC50 [3] | CT tumor volume vs vehicle [4] | metabolic volume (MV) vs vehicle, FDG-PET [4] | total lesion glycolysis (TLG) [4] | fold more potent than JS61 ([2]; ratio of IC50 values across the panel)
ClCCN(CCCl)c1ccc2ncnc(Nc3cccc(Br)c3)c2c1 [JS61] | no significant weight loss | 1.39 to 12.5 µM | 12.5 ± 0.61 µM | – | – | – | –
CN(CCCl)c1ccc2ncnc(Nc3cccc(Br)c3)c2c1 [JS84] | no significant weight loss | 0.18 to 5.04 µM | 5.04 ± 0.98 µM | not statistically different | not statistically different | reduction in TLG | –
ClCCNc1ccc2ncnc(Nc3cccc(Br)c3)c2c1 [ZR2002] | no significant weight loss | 0.08 to 0.45 µM | 0.45 ± 0.08 µM | significant reduction | significant reduction | reduction in TLG | 17–36 fold
